Assay results published in US20220125807A1, “PHARMACEUTICAL COMBINATION OF WNT SIGNALING AND MACC1 INHIBITORS” (Max-Delbrück-Centrum für Molekulare Medizin in der …, priority 2019, published 2022).

Assays:
MACC1 [1] = assay: MACC1 mRNA expression by qRT-PCR in statin-treated HCT116 cells; format: cell-based, human; conditions: 1-10 μM statin, 24 h, relative to DMSO treated control
Method: (§1) HCT116 cells were treated with increasing amounts (1-10 μM) of different, clinically relevant statins dissolved in DMSO. Following 24 h of treatment cells were harvested for RNA and protein isolation. MACC1 mRNA expression was analyzed by qRT-PCR and is expressed relative to DMSO treated control samples. Protein amounts were analyzed by western blot.
(§2) HCT116, SW620 and SW480 colorectal carcinoma cells were purchased from ATCC. HCT116 cells were stably transduced with GFP/ MACC1-GFP plasmids to produce MACC1 overexpressing cell lines and SW620 cells were stably transduced by sh-control/sh-MACC1 plasmids to produce MACC1 knockdown cell lines. SW480 stable MACC1 overexpressing cell lines were created using pCDNA3.1 MACC1 plasmids and the control cells were produced using pCDNA3.1 empty plasmids followed clone selection using Gentamycin (Gibco). Knock-out of MACC1 in SW620 cells was achieved by CRISPR-Cas9 based gene editing followed by Puromycin (Gibco) based selection and subsequently the clones were picked using single cell sorting. Cells were cultured in RPMI supplemented with 10% FCS in 5% CO2 humidified atmosphere and sub passaged 2-3 times a week to maintain cultures subconfluent. Drugs were solubilized in DMSO, stock concentrations were 2 mM for niclosamide (Sigma-Aldrich, St Louis, Mo., USA), 2 mM for GSK1120212 (trametinib, Selleck Chemicals, Munich, Germany) and selumetinib (AZD6244, Selleck Chemicals, Munich, Germany) and 10 mM for statins (atorvastatin, lovastatin, fluvastatin, TCI Deutschland GmbH, Eschborn, Germany). All drugs were pre-diluted to 1000× final concentration in DMSO. Control cells were treated with equal amounts of DMSO.
RNA was isolated using the Gene Matrix Universal RNA Purification Kit (EURx, Poland) according to the manufacturer's instructions. RNA was quantified and 50 ng of RNA was reverse transcribed using a reaction mix containing MuLV reverse transcriptase, 10 mM MgCl2, 1× PCR-Buffer, 250 μM pooled dNTPs, 1U RNAse inhibitor and random hexamers (all from Applied Biosystems). The reaction was performed at 42° C. for 15 min, 99° C. for 5 min and subsequent cooling at 4° C. for 5 min. The cDNA was amplified using SYBR Green chemistry (Promega) using the LightCycler 480 II system (Roche Diagnostics) at the following PCR conditions: 95° C. for 2 min followed by 45 cycles of 95° C. for 7 s, 60° C. for 10 s and 72° C. for 20 s. The primers used for quantification are as follows: MACC1 Fwd 5′-[…]-3′ and Rev 5′-[…]-3′; S100A4 Fwd 5′-[…]-3′ and Rev 5′- […]-3′. Data analysis was performed with LightCycler 480 Software release 1.5.0 SP3 (Roche Diagnostics). Mean values was calculated from RT-qPCR duplicates. Each mean value of the expressed gene was normalized to the respective RP-II cDNA. […]

MACC1 [2] = assay: MACC1 protein by western blot in statin-treated HCT116 cells; format: cell-based, human; conditions: 1-10 μM statin, 24 h
Method: as §1, §2
Whole cell protein extraction was performed on 5×10^5 HCT116 and SW620 cells. Cells were lysed using RIPA buffer (50 mM Tris-HCT pH 7.5, 150 mM NaCl, 1% Nonidet P-40) supplemented with cOmplete Protease inhibitor (Roche) for 30 min at 4° C. The lysate was clarified and the protein content was measured using the BCA Kit (Pierce). 20 μg protein lysate were denatured with LDS-containing NuPage Loading buffer (invitrogen) and DTT for 10 min.
Proteins were then resolved in 10% SDS-PAGE followed by protein transfer onto PVDF membranes (BioRAD). The membrane was blocked with 5% w/v skim milk powder and 1% w/v BSA in TBST (10 mM Tris-HCL pH 8, 150 mM NaCl and 0.1% Tween 20) for 60 min. The membrane was incubated overnight with the respective primary antibodies (anti-MACC1, #HPA020081, Sigma Aldrich; S100A4, #5114, Dako and β-Actin, #31430, Invitrogen; Lamin B1, #12586s, Cell Signalling). The membranes were washed and further incubated with corresponding horseradish peroxidase-tagged secondary antibodies (anti-mouse IgG HRP-conjugated, #31430, Invitrogen and anti-rabbit IgG HRP-conjugated, #W4018, Promega) for 60 min. […]

HCT116 cells = assay: Wound healing (scratch) assay, IncuCyte, with Loewe synergy calculation; format: cell-based, human; conditions: HCT116, three concentrations (statin 5/2.5/1.25 μM, niclosamide 1/0.5/0.25 μM), 48 h, vs DMSO
Method: For wound healing assays the HCT116 human colon cancer cell line was used. HCT116 cells are endogenously positive for MACC1 and S100A4 expression at the mRNA and protein level. In addition, they show decreased motility when either marker is inhibited. For wound healing (scratch) experiments cells were passaged to a density of 6×10^5 per ml and cultured for 48 h. Cells were then harvested and counted. For wound healing assays 1.2×10^5 cells were seeded in 100 μl RPMI supplemented with 10% FCS in 96 well Image Lock Plates (Essen Bioscience, Hertfordshire, UK). Cells were allowed to adhere for 6 hours. Wounds in the monolayer were applied using the IncuCyte WoundMaker (Essen Bioscience). After applying the wounds 100 μl of 2-fold concentrated drug solutions were added. DMSO treated and untreated samples served as controls. For each drug three different (niclosamide 1 μM, 0.5 μM and 0.25 μM, each statin 5 μM, 2.5 μM and 1.25 μM, MEK1 inhibitors 1 μM, 0.1 μM and 0.01 μM) concentrations and combinations thereof were applied, each in triplicate. Of all statins, we tested lovastatin, fluvastatin and atorvastatin. Wound closure was monitored every second hour in the IncuCyte system (Essen Bioscience). A pre-established image collection of HCT116 was used to teach the software detection of cells and wound. Wound confluency was expressed relative to DMSO treated controls. Synergy was analyzed using combenefit 2.021. DMSO treated samples were set to 100%. To calculate synergy, we used the Loewe isobole equation model. For the calculations dose-response curves for three single concentrations and the nine combinations thereof were used. The Loewe model was applied since there is a certain degree of target interaction already shown: first, active Wnt-signaling is important for MACC1 driving tumor progression and invasiveness (Lemos C, Clin Cancer Res, 2016) and second, S100A4 is a Wnt-signaling target gene and is found in the MACC1 induced secretome. The three single concentrations and nine combinations thereof were expressed relative to the control.

HCT116-CMVp-Luc cells = assay: Xenograft mouse model of liver metastasis, intrasplenic transplantation, bioluminescence imaging; format: in vivo, SCID-beige mice; conditions: daily p.o., alone or combined, vs solvent; for Metastasis formation to the liver (luminescence), reduced dose: statin 1.5 mg/kg, niclosamide 164 mg/kg; for Metastasis formation to the liver (luminescence), maximum human dose equivalent: statin 13 mg/kg, niclosamide 328 mg/kg
Method: Severe combined immunodeficiency (SCID)-beige mice (n=10 per group) were intrasplenically transplanted with HCT116-CMVp-Luc cells and treated daily with solvent, 13 mg/kg atorvastatin or fluvastatin (p.o.), 328 mg/kg niclosamide (p.o.) or the combination of niclosamide with one of the statins, at the indicated doses. These doses correspond to the maximum human doses established for the statins and niclosamide. Metastasis to the liver was analyzed with bioluminescence imaging after an intraperitoneal application of 150 mg/kg D-Luciferin at the experimental endpoint. Following whole animal imaging livers were removed and analyzed as isolated organs.
Severe combined immunodeficiency (SCID)-beige mice (n=10 per group) were intrasplenically transplanted with HCT116-CMVp-Luc cells and treated daily with solvent, 1.5 mg/kg atorvastatin or fluvastatin (p.o.), 164 mg/kg niclosamide (p.o.) or the combination of niclosamide with one of the statins, at the indicated doses. These doses therefore correspond to 12.5% of the maximum human dose for the statins and 50% of the maximum human dose for niclosamide. Metastasis to the liver was analyzed with bioluminescence imaging after an intraperitoneal application of 150 mg/kg D-Luciferin at the experimental endpoint. Following whole animal imaging livers were removed and analyzed as isolated organs.
All experiments were performed in accordance with the United Kingdom Coordinated Committee on Cancer Research (UKCCCR) guidelines and approved by the responsible local authorities (State Office of Health and Social Affairs, Berlin, Germany). For in vivo drug testing a xenograft mouse model was used as described earlier (Stein 2009 Nat Med, Sack 2011 J Natl Cancer Inst,
Juneja & Kobelt 2017 Plos Biol). In brief, HCT116-CMVp-LUC cells (5×10^5 cells per mouse, resuspended in 50 μL PBS) were intrasplenically transplanted into 6-week-old female SCID beige (SCID bg/bg) mice. The animals were assigned randomly into treatment groups.
Drugs were administered as a suspension using a gavage tube. Both niclosamide (either 328 mg/kg or 164 mg/kg) and a statin (atorvastatin or fluvastatin, at 13 mg/kg or 1.5 mg/kg) were administered daily, orally. Control mice were treated with the appropriate volume of solvent solution. The in vivo experimentation and luminescence imaging were conducted as described below.
For luminescence imaging, mice were anesthetized with 5% Isoflurane and received intraperitoneally 150 mg/kg D-luciferin (Biosynth, Staad, Switzerland) dissolved in sterile PBS. Anesthesia was maintained with 2% isoflurane. Imaging was performed with the NightOWL LB 981 system (Berthold Technologies, Bad Wildbad, Germany). ImageJ version 1.48v (NIH, Bethesda, Md.) was used for color coding of signal intensity (presenting a 256 grayscale) and overlay pictures.

Question: Which results are given for CC[C@H](C)C(=O)O[C@H]1C[C@@H](C)C=C2C=C[C@H](C)[C@H](CC[C@@H]3C[C@@H](O)CC(=O)O3)[C@H]21 [lovastatin]?
Answer: MACC1 mRNA expression (MACC1 [1]): shown to reduce; MACC1 protein (MACC1 [2]): shown to reduce; Wound closure (cellular motility), single agents (HCT116 cells): dose dependent reduction of wound closure ability

Question: O=C(Nc1ccc([N+](=O)[O-])cc1Cl)c1cc(Cl)ccc1O [niclosamide, 5-Chloro-N-(2-chloro-4-nitrophenyl)-2-hydroxybenzamide] was tested. Which “Wound closure (cellular motility), single agents” value (shortened to “Wound closure (cellular motility)”) (HCT116 cells) did it give?
Answer: dose dependent reduction of wound closure ability

Question: What about the “Metastasis formation to the liver (luminescence), reduced dose” value (“Metastasis formation … reduced dose” for short) (HCT116-CMVp-Luc cells) of the same compound?
Answer: no reduction in metastasis formation

Question: What about the “Metastasis formation to the liver (luminescence), maximum human dose equivalent” value (HCT116-CMVp-Luc cells) of the same compound?
Answer: significantly reduced

Question: With CC(C)c1c(C(=O)Nc2ccccc2)c(-c2ccccc2)c(-c2ccc(F)cc2)n1CC[C@@H](O)C[C@@H](O)CC(=O)O [atorvastatin] as the compound, how does the “MACC1 mRNA expression” value (MACC1 [1]) read?
Answer: shown to reduce

Question: What about the MACC1 protein (MACC1 [2]) of the same compound?
Answer: shown to reduce

Question: And the “Wound closure (cellular motility)” value (HCT116 cells)?
Answer: dose dependent reduction of wound closure ability

Question: What about the “Metastasis formation … reduced dose” value (HCT116-CMVp-Luc cells) of the same compound?
Answer: no reduction in metastasis formation

Question: And the “Metastasis formation to the liver (luminescence), maximum human dose equivalent” value (HCT116-CMVp-Luc cells)?
Answer: significantly reduced

Question: Which results are given for O=C(O)C[C@H](O)C[C@H](O)/C=C/c1c(C2CC2)nc2ccccc2c1-c1ccc(F)cc1 [Pitavastatin]?
Answer: MACC1 mRNA expression (MACC1 [1]): shown to reduce; MACC1 protein (MACC1 [2]): shown to reduce

Question: With CC(C)n1c(/C=C/[C@H](O)C[C@H](O)CC(=O)O)c(-c2ccc(F)cc2)c2ccccc21 (racemic) [fluvastatin] as the compound, how does the “MACC1 mRNA expression” value (MACC1 [1]) read?
Answer: shown to reduce

Question: What about the MACC1 protein (MACC1 [2]) of the same compound?
Answer: shown to reduce

Question: What about the “Wound closure (cellular motility)” value (HCT116 cells) of the same compound?
Answer: dose dependent reduction of wound closure ability

Question: And the “Metastasis formation … reduced dose” value (HCT116-CMVp-Luc cells)?
Answer: no reduction in metastasis formation

Question: And the “Metastasis formation to the liver (luminescence), maximum human dose equivalent” value (HCT116-CMVp-Luc cells)?
Answer: significantly reduced
